Results taken from ChEMBL document CHEMBL1129760, “A topliss tree analysis of the HIV-protease inhibitory activity of 6-phenyl-4-hydroxy-pyran-2-ones” (Bioorg Med Chem Lett, 1996).

Target: Human immunodeficiency virus type 1 protease (Human immunodeficiency virus 1, UniProt Q72874)
Assay: Inhibitory activity against purified HIV-1 protease (BH10) at a pH of 4.7 and a final enzyme concentration of 0.45-1.1 nM

Row | Structure (SMILES) | IC50
1 | CC(C)c1ccccc1Sc1c(O)cc(-c2cc(Cl)cc(Cl)c2)oc1=O | 26 nM
2 | CCc1cccc(-c2cc(O)c(Sc3ccccc3C(C)C)c(=O)o2)c1 | 262 nM
3 | Cc1ccc(-c2cc(O)c(Sc3ccccc3C(C)C)c(=O)o2)cc1 | 59 nM
4 | CC(C)c1ccccc1Sc1c(O)cc(-c2cccc(O)c2)oc1=O | 89 nM
5 | CC(C)c1ccccc1Sc1c(O)cc(-c2cccc(-c3ccccc3)c2)oc1=O | 38 nM
6 | Cc1ccccc1-c1cc(O)c(Sc2ccccc2C(C)C)c(=O)o1 | 1340 nM
7 | CC(C)c1ccccc1Sc1c(O)cc(-c2ccc(C#N)cc2)oc1=O | 205 nM
8 | CC(C)c1ccccc1Sc1c(O)cc(-c2ccc(O)c(C(=O)O)c2)oc1=O | 292 nM
9 | CC(C)c1ccccc1Sc1c(O)cc(-c2cccc(C(F)(F)F)c2)oc1=O | 76 nM
10 | CCOC(=O)c1cccc(-c2cc(O)c(Sc3ccccc3C(C)C)c(=O)o2)c1 | 1930 nM
11 | CC(C)c1ccccc1Sc1c(O)cc(-c2ccc([N+](=O)[O-])cc2)oc1=O | 191 nM
12 | CC(C)c1ccccc1Sc1c(O)cc(-c2ccccc2Cl)oc1=O | 225 nM
13 | CC(C)c1ccccc1Sc1c(O)cc(-c2cccc(Cl)c2)oc1=O | 23 nM
14 | CCOC(=O)c1ccc(-c2cc(O)c(Sc3ccccc3C(C)C)c(=O)o2)cc1 | 35 nM
15 | CC(C)(C)NC(=O)[C@@H]1CCCCN1C[C@@H](O)[C@H](Cc1ccccc1)NC(=O)[C@H](CC(N)=O)NC(=O)c1ccc2ccccc2n1 | 10 nM
16 | COc1ccccc1-c1cc(O)c(Sc2ccccc2C(C)C)c(=O)o1 | 1420 nM

Row | Structure (SMILES) | IC50
17 | CC(C)c1ccccc1Sc1c(O)cc(-c2cccc(N(C)C)c2)oc1=O | 114 nM
18 | CC(C)c1ccccc1Sc1c(O)cc(-c2ccc(O)cc2)oc1=O | 54 nM
19 | CCOC(=O)c1cc(-c2cc(O)c(Sc3ccccc3C(C)C)c(=O)o2)ccc1O | 148 nM
20 | CC(C)c1ccccc1Sc1c(O)cc(-c2cccc(C(=O)O)c2)oc1=O | 151 nM
21 | COC(=O)c1cccc(-c2cc(O)c(Sc3ccccc3C(C)C)c(=O)o2)c1 | 80 nM
22 | CC(C)c1ccccc1Sc1c(O)cc(-c2ccc(Cl)c(Cl)c2)oc1=O | 22 nM
23 | COC(=O)c1cc(-c2cc(O)c(Sc3ccccc3C(C)C)c(=O)o2)ccc1O | 62 nM
24 | CC(C)c1ccccc1Sc1c(O)cc(-c2ccc(C(N)=O)cc2)oc1=O | 135 nM
25 | CC(C)c1ccccc1Sc1c(O)cc(-c2ccc(F)cc2)oc1=O | 124 nM
26 | Cc1cccc(-c2cc(O)c(Sc3ccccc3C(C)C)c(=O)o2)c1 | 14 nM
27 | CC(C)c1ccccc1Sc1c(O)cc(-c2ccc(C(=O)O)cc2)oc1=O | 68 nM
28 | CC(C)c1ccccc1Sc1c(O)cc(-c2ccc(Cl)cc2)oc1=O | 76 nM
29 | CC(C)c1ccccc1Sc1c(O)cc(-c2cccc([N+](=O)[O-])c2)oc1=O | 67 nM
30 | Cc1cc(C)cc(-c2cc(O)c(Sc3ccccc3C(C)C)c(=O)o2)c1 | 15 nM
31 | COc1ccc(-c2cc(O)c(Sc3ccccc3C(C)C)c(=O)o2)cc1 | 83 nM
